Experiment [1] addresses T1, BA/F3-FLT3-ITD + D835Y cells (Homo sapiens, UniProt P36888, D835Y, cells depend on it, form not given).
T1 sequence (P36888 1-993 D835Y): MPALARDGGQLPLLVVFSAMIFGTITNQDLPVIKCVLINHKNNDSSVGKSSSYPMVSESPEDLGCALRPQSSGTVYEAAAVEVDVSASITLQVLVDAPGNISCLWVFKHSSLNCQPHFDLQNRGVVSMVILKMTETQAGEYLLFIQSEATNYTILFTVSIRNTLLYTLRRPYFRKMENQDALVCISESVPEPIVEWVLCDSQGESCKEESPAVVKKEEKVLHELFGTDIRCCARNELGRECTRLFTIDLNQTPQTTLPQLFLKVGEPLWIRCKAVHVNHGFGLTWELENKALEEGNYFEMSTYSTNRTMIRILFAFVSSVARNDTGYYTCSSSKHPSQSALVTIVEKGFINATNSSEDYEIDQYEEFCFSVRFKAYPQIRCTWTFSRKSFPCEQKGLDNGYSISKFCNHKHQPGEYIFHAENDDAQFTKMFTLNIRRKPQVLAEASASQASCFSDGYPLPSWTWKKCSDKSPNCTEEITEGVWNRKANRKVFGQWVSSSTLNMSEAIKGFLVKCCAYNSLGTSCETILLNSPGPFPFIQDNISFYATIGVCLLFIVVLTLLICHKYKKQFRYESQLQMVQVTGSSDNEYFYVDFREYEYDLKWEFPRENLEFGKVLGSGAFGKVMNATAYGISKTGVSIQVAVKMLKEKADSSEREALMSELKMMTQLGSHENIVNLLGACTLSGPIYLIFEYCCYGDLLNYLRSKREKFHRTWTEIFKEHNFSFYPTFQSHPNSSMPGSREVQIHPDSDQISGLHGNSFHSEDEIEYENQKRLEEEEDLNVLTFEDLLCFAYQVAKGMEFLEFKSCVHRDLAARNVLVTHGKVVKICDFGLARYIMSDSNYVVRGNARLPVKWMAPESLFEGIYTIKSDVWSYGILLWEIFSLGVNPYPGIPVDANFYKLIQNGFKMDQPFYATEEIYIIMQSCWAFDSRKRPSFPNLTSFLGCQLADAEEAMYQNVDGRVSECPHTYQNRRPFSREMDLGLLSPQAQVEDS
Briefly: Cell proliferation assay (CellTiter-Glo), engineered BA/F3 cells. It is filed as cell-based, murine. Particulars: BaF3 FLT3 ITD/D835Y cells, 3d-Growth; read-out: BaF3_FLT3 ITD/D835Y 3d-Growth: IC50. The method in brief: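 Three-day growth at 37 °C, 5% CO2 under compound (1 μM top final, 1:3 dilutions, eight points, 0.2% DMSO), read as ATP luminescence by CellTiter-Glo for IC50. Cells: MOLM-14 with FLT3 ITD plus D835Y or F691L, and IL-3-deprived Ba/F3 transfected with FLT3 ITD/D835Y, 1×10^4 per well.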
Background: Cellular ATP, detected with luciferase, serves as a proxy for viable cell number.

Another experiment has as its target T2, c-KIT (Homo sapiens, UniProt P10721).
T2 construct: purchased Millipore 14-559K
The experiment can be described thus: AlphaScreen kinase assay with recombinant enzyme, c-KIT. The format is biochemical. Particulars: 100ATP, 8pt, GMean. In short, it runs like this: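 Tyrosine phosphorylation of biotin-poly(Glu4-Tyr) substrate by recombinant enzyme is detected with PY20 acceptor and streptavidin donor beads after room-temperature incubations of 20 and 60 min. IC50 values were derived at a final 10 μM (FLT3-D835Y, FLT3-ITD) or 100 μM (c-KIT).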
On the technique in general: Bead proximity is the source of the signal in Alpha formats.

Each structure is given as a SMILES string.

Usually IC50 stands for the concentration that inhibits the measured activity by half.

T2 sequence (P10721 26-976): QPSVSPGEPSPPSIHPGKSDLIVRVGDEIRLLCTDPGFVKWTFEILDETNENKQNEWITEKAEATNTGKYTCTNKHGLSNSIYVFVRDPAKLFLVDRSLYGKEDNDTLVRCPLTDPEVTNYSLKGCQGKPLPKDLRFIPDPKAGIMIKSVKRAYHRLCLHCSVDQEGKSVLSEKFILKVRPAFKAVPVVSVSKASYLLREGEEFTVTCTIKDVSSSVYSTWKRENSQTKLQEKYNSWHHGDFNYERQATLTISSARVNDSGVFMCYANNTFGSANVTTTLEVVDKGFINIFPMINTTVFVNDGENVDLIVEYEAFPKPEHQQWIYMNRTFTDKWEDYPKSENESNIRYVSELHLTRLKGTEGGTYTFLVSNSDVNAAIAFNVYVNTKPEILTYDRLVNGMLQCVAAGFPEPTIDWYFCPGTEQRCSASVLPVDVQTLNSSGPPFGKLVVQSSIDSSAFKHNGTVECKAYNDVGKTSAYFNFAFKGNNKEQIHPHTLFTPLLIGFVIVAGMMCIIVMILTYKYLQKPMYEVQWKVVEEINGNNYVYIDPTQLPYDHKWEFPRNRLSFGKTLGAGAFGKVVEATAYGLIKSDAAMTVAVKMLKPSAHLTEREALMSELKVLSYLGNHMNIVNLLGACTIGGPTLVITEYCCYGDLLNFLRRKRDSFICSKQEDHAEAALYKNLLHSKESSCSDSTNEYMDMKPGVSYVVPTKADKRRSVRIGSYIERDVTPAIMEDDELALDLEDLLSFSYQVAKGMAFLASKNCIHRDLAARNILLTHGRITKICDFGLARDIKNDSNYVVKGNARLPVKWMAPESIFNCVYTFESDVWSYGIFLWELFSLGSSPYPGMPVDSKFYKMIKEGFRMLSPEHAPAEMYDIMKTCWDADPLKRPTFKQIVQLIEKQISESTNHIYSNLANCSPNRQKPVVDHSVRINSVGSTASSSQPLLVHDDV

For `CN[C@@H]1CCN(C(=O)c2cccc(-c3cnc4[nH]c(-c5ccccc5)cc4c3)n2)C1` [Compound P-0058, [(3R)-3-(methylamino)pyrrolidin-1-yl]-[6-(2-phenyl-1H-pyrrolo[2,3-b]pyridin-5-yl)-2-pyridyl]methanone], the GI50 in experiment [1] is 0.0001 to 10 µM. The concentration for half-maximal inhibition (IC50) on c-KIT was in the range of 0.0001 to 10 µM.

On to `CC(C)(C)OC(=O)NC1CCN(C(=O)c2cccc(-c3cnc4[nH]c(-c5ccccc5)cc4c3)n2)CC1` [Compound P-0017, tert-butyl N-[1-[6-(2-phenyl-1H-pyrrolo[2,3-b]pyridin-5-yl)pyridine-2-carbonyl]-4-piperidyl]carbamate], for which, in experiment [1], the GI50 is 0.0001 to 10 µM. In addition, on c-KIT, the half-inhibitory concentration (IC50) fell in the range of 10 to 50 µM.

On to `C#Cc1cc2cc(-c3cccc(S(=O)(=O)NC4CC4)c3)cnc2[nH]1` [Compound P-0004, N-cyclopropyl-3-(2-ethynyl-1H-pyrrolo[2,3-b]pyridin-5-yl)benzenesulfonamide], for which the GI50 in experiment [1] fell in the range of 0.0001 to 10 µM. In addition, the IC50 on c-KIT lay within 0.0001 to 10 µM.

For `CNC1CCN(C(=O)c2cccc(-c3cnc4[nH]c(C5=CCC(C)(C)CC5)cc4c3)n2)C1` (stereo not drawn) [Compound P-0070, [6-[2-(4,4-dimethylcyclohexen-1-yl)-1H-pyrrolo[2,3-b]pyridin-5-yl]-2-pyridyl]-[3-(methylamino)pyrrolidin-1-yl]methanone], in experiment [1], the GI50 was in the range of 0.0001 to 10 µM. Besides, the IC50 at c-KIT lay in the range of 0.0001 to 10 µM.

As to `CNC1CCN(S(=O)(=O)c2cccc(-c3cnc4[nH]c(-c5ccccc5)cc4c3)n2)C1` (stereo not drawn) [Compound P-0063, N-methyl-1-[[6-(2-phenyl-1H-pyrrolo[2,3-b]pyridin-5-yl)-2-pyridyl]sulfonyl]pyrrolidin-3-amine], the GI50 in experiment [1] lay within 0.0001 to 10 µM. In addition, the half-maximal inhibitory concentration (IC50) at c-KIT was in the range of 0.0001 to 10 µM.

With `NC(=O)Nc1ccc(-c2cnc3[nH]c(-c4ccccc4)cc3c2)cc1` [Compound P-0005, [4-(2-phenyl-1H-pyrrolo[2,3-b]pyridin-5-yl)phenyl]urea], the GI50 in experiment [1] was in the range of 0.0001 to 10 µM. Also, the 50% inhibitory concentration (IC50) at c-KIT fell in the range of 0.0001 to 10 µM.

Take `CNC1CCN(C(=O)c2cccc(-c3cnc4[nH]c(-c5ccc(F)cc5)cc4c3)n2)C1` (stereo not drawn) [Compound P-0055, [6-[2-(4-fluorophenyl)-1H-pyrrolo[2,3-b]pyridin-5-yl]-2-pyridyl]-[3-(methylamino)pyrrolidin-1-yl]methanone]: the GI50 in experiment [1] was 0.0001 to 10 µM. For the same compound, at c-KIT, the IC50 fell in the range of 0.0001 to 10 µM.

With `CNC1CN(C(=O)c2cccc(-c3cnc4[nH]c(-c5ccccc5)cc4c3)n2)C1` [Compound P-0052, [3-(methylamino)azetidin-1-yl]-[6-(2-phenyl-1H-pyrrolo[2,3-b]pyridin-5-yl)-2-pyridyl]methanone], the GI50 in experiment [1] was in the range of 0.0001 to 10 µM. At c-KIT, the IC50 lay within 0.0001 to 10 µM.

With `CC1(C#N)CCN(C(=O)c2cccc(-c3cnc4[nH]c(-c5ccccc5)cc4c3)n2)CC1` [Compound P-0094, 4-methyl-1-[6-(2-phenyl-1H-pyrrolo[2,3-b]pyridin-5-yl)pyridine-2-carbonyl]piperidine-4-carbonitrile], in experiment [1], the GI50 is 0.0001 to 10 µM. Besides, the IC50 at c-KIT lay within 50 to 100 µM.

As for `NC1CCN(S(=O)(=O)c2cccc(-c3cnc4[nH]c(-c5ccccc5)cc4c3)n2)CC1` [Compound P-0073, 1-[[6-(2-phenyl-1H-pyrrolo[2,3-b]pyridin-5-yl)-2-pyridyl]sulfonyl]piperidin-4-amine], in experiment [1], the GI50 lay in the range of 0.0001 to 10 µM. For the same compound, on c-KIT, the IC50 fell in the range of 0.0001 to 10 µM.

For `O=S(=O)(NC1CCNCC1)c1cccc(-c2cnc3[nH]c(-c4ccccc4)cc3c2)n1` [Compound P-0086, 6-(2-phenyl-1H-pyrrolo[2,3-b]pyridin-5-yl)-N-(4-piperidyl)pyridine-2-sulfonamide], the GI50 in experiment [1] fell in the range of 0.0001 to 10 µM. For the same compound, the IC50 at c-KIT lay in the range of 0.0001 to 10 µM.

In the case of `N#CC1CCN(C(=O)c2cccc(-c3cnc4[nH]c(-c5ccc(F)cc5)cc4c3)n2)C1` (stereo not drawn) [Compound P-0116, 1-[6-[2-(4-fluorophenyl)-1H-pyrrolo[2,3-b]pyridin-5-yl]pyridine-2-carbonyl]pyrrolidine-3-carbonitrile], in experiment [1], the GI50 was 0.0001 to 10 µM. Moreover, the IC50 on c-KIT lay within 0.0001 to 10 µM.

In the case of `O=C(c1cccc(-c2cnc3[nH]c(-c4ccccc4)cc3c2)n1)N1CCC(CO)CC1` [Compound P-0023, [4-(hydroxymethyl)-1-piperidyl]-[6-(2-phenyl-1H-pyrrolo[2,3-b]pyridin-5-yl)-2-pyridyl]methanone], the GI50 in experiment [1] was 0.0001 to 10 µM. Further, the IC50 at c-KIT lay within 50 to 100 µM.

Turning to `CS(=O)(=O)NC1CCN(C(=O)c2cccc(-c3cnc4[nH]c(-c5ccccc5)cc4c3)n2)C1` (stereo not drawn) [Compound P-0101, N-[1-[6-(2-phenyl-1H-pyrrolo[2,3-b]pyridin-5-yl)pyridine-2-carbonyl]pyrrolidin-3-yl]methanesulfonamide], the GI50 in experiment [1] lay in the range of 0.0001 to 10 µM. For the same compound, the half-inhibitory concentration (IC50) on c-KIT fell in the range of 50 to 100 µM.

For `COC1CN(C(=O)c2cccc(-c3cnc4[nH]c(-c5ccccc5)cc4c3)n2)C1` [Compound P-0091, (3-methoxyazetidin-1-yl)-[6-(2-phenyl-1H-pyrrolo[2,3-b]pyridin-5-yl)-2-pyridyl]methanone], the GI50 in experiment [1] is 0.0001 to 10 µM. The 50% inhibitory concentration (IC50) at c-KIT lay in the range of 50 to 100 µM.

As for `CN(C)S(=O)(=O)Nc1cccc(-c2cnc3[nH]c(-c4ccccc4)cc3c2)c1` [Compound P-0007, 5-[3-(dimethylsulfamoylamino)phenyl]-2-phenyl-1H-pyrrolo[2,3-b]pyridine], in experiment [1], the GI50 lay in the range of 0.0001 to 10 µM. Also, on c-KIT, the IC50 fell in the range of 10 to 50 µM.

Regarding `O=C(Nc1cccc(-c2cnc3[nH]c(-c4ccccc4)cc3c2)n1)C1CNC1` [Compound P-0084, N-[6-(2-phenyl-1H-pyrrolo[2,3-b]pyridin-5-yl)-2-pyridyl]azetidine-3-carboxamide], the GI50 in experiment [1] lay in the range of 0.0001 to 10 µM. Besides, the IC50 at c-KIT fell in the range of 0.0001 to 10 µM.

`N[C@H]1CCN(C(=O)c2cccc(-c3cnc4[nH]c(-c5ccccc5)cc4c3)n2)C1` [Compound P-0015, [(3S)-3-aminopyrrolidin-1-yl]-[6-(2-phenyl-1H-pyrrolo[2,3-b]pyridin-5-yl)-2-pyridyl]methanone]: the GI50 in experiment [1] fell in the range of 0.0001 to 10 µM. Also, the IC50 on c-KIT was 0.0001 to 10 µM.

In the case of `NCC1CCN(C(=O)c2cccc(-c3cnc4[nH]c(-c5ccccc5)cc4c3)n2)CC1` [Compound P-0026, [4-(aminomethyl)-1-piperidyl]-[6-(2-phenyl-1H-pyrrolo[2,3-b]pyridin-5-yl)-2-pyridyl]methanone], the GI50 in experiment [1] was 0.0001 to 10 µM. Besides, the concentration for half-maximal inhibition (IC50) at c-KIT lay within 0.0001 to 10 µM.

Turning to `CNC1CCN(C(=O)c2cccc(-c3cnc4[nH]c(-c5cnn(CC(F)(F)F)c5)cc4c3)n2)C1` (stereo not drawn) [Compound P-0061, [3-(methylamino)pyrrolidin-1-yl]-[6-[2-[1-(2,2,2-trifluoroethyl)pyrazol-4-yl]-1H-pyrrolo[2,3-b]pyridin-5-yl]-2-pyridyl]methanone], in experiment [1], the GI50 fell in the range of 0.0001 to 10 µM. Also, the half-inhibitory concentration (IC50) on c-KIT was 10 to 50 µM.

For the compound `CC(=O)NC1CCN(C(=O)c2n[nH]c3ccc(-c4cnc5[nH]c(-c6ccccc6)cc5c4)cc23)CC1` [Compound P-0021, N-[1-[5-(2-phenyl-1H-pyrrolo[2,3-b]pyridin-5-yl)-1H-indazole-3-carbonyl]-4-piperidyl]acetamide], the GI50 in experiment [1] lay in the range of 0.0001 to 10 µM. At c-KIT, the IC50 was in the range of 50 to 100 µM.

In the case of `CN1CCC(NC(=O)c2cccc(-c3cnc4[nH]c(-c5ccccc5)cc4c3)n2)C1` (stereo not drawn) [Compound P-0064, N-(1-methylpyrrolidin-3-yl)-6-(2-phenyl-1H-pyrrolo[2,3-b]pyridin-5-yl)pyridine-2-carboxamide], in experiment [1], the GI50 was 0.0001 to 10 µM. Also, at c-KIT, the IC50 fell in the range of 0.0001 to 10 µM.

In the case of `CNC1CCN(C(=O)c2cccc(-c3cnc4[nH]c(-c5cn(C)nc5C)cc4c3)n2)C1` (stereo not drawn) [Compound P-0049, [6-[2-(1,3-dimethylpyrazol-4-yl)-1H-pyrrolo[2,3-b]pyridin-5-yl]-2-pyridyl]-[3-(methylamino)pyrrolidin-1-yl]methanone], the GI50 in experiment [1] lay in the range of 0.0001 to 10 µM. At c-KIT, the IC50 was in the range of 0.0001 to 10 µM.

Take `CN(C)C1CCN(C(=O)c2cccc(-c3cnc4[nH]c(-c5ccccc5)cc4c3)n2)C1` (stereo not drawn) [Compound P-0104, [3-(dimethylamino)pyrrolidin-1-yl]-[6-(2-phenyl-1H-pyrrolo[2,3-b]pyridin-5-yl)-2-pyridyl]methanone]: the GI50 in experiment [1] fell in the range of 0.0001 to 10 µM. Besides, the half-inhibitory concentration (IC50) at c-KIT fell in the range of 0.0001 to 10 µM.
